Series [1] deals with Methicillin Resistant Staphylococcus aureus MRSA USA300. Put plainly: In-vitro agar well diffusion, zone of bacterial growth inhibition. The class given is cell-based.
Description: All challenge inoculum suspensions were prepared by swabbing a 3-cm diameter area of the growth from a culture plate into 4.5 ml of sterile phosphate buffer solution (PBS). […] The concentration was confirmed using historical optical density measurements. […] Concentrations of 10^4 CFU/ml for each bacteria was tested in this study.
Three (3) plates of Tryptic soy agar with 5% sheep blood (TSAII) per treatment for each bacteria was challenged with 100 μl of each inoculum 10^4 CFU/ml (MRSA USA300 or PA27312).
Inoculums were spread around each plate using 3 mm sterile glass beads.
Three (10 mm) punch biopsies were made on all inoculated TSAII blood culture media plates and those biopsies were removed with a sterile spatula to create wells on each plate.
Approximately 150-200 μl of each treatment was placed in the well of the inoculated TSA II plates. […] Negative Control Petrolatum or Sterile PBS.
Treatments were allowed to diffuse into agar for approximately 2-3 hours at room temperature prior to incubating plates for 24 hours at 37° C.
After the incubation period, the zones of bacteria growth inhibition (if any) were measured using ImageJ 1.4lo software.
IBM SSPS Statistics Version 26 with ANOVA statistical analysis was used to determine any differences between treatments.
Series [2] is described as follows: Solubility in anhydrous lipophilic oil composition.
Where [3] appears, read: average of 9 wells, 10^4 CFU/ml.
Where [4] appears, read: average of 9 wells, 10^4 CFU/ml, ImageJ area.

`C/C(=C\C(=O)OCCCCCCCCC(=O)O)C[C@@H]1OC[C@H](C[C@@H]2O[C@H]2[C@@H](C)[C@H](C)O)[C@@H](O)[C@H]1O` [Mupirocin]: the “zone of inhibition, comparison in words” value in series [1] (MRSA USA300) was “largest zone of inhibition”. Further, in series [1] (setting [3]), the “Average Inhition in cm2” value is recorded as 42.81 cm2 and the “Diameter cm (of average inhibition zone)” value stood at 7.3849 cm. Also, in series [1] (setting [4]), the “Average Inhibition Zone vs Each disk” value amounted to 244618.78 and the “Average Inhibition Zone vs disk average” value is on record as 244618.78. In series [1] (mean ± spread, 10^4 CFU/ml MRSA USA300), the “areas of inhibition zones” value came out at 42.81±0.29 cm^2.

`CCCCCCCCCCCC(=O)OCC(O)CO` (stereo not shown) [monolaurin, glycerol monolaurate]: the “inherent solubility in an oil” value in series [2] is recorded as “less than or equal to 0.6%”.

These data come from patent publication US20240139138A1, “COMPOSITION OF AND METHOD FOR TREATING INJURY AND/OR SKIN CONDITIONS” (Omeza Holdings, Inc., priority 2022, published 2024).
